Legend:
wild type PKR [1] = target: T1, wild type PKR (Homo sapiens, UniProt P30613); assay: Cell based ATP assay in purified red blood cells (Cell-Titer-Glo); design: endogenous in cells; host or cells: purified red blood cells from healthy volunteers; settings: overnight at 37° C., ATP levels; for EC50 / Cell based ATP assay: Table 4, AC50, RBCs; for Cell based ATP assay AC50 / AC50: Table 2, RBCs
Summary of the method: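 RBCs from healthy human donors' K2EDTA blood were leukocyte-depleted by filtration and resuspended in AGAM (PBS, 1% glucose, adenine, mannitol). Cells at 1×10^7 cells/mL were incubated overnight at 37 °C with serially diluted compound at 0.1% DMSO, and ATP was read by Cell-Titer-Glo luminescence.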

PKR K410E = PKR K410E (Homo sapiens, UniProt P30613, K410E); assay: PKR mutant assay (K410E), AC50, LDH/NADH-coupled, absorbance at 340 nm; type: biochemical; settings: for AC50: Table 2, enzyme assay
Summary of the method: (§1)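 Enzyme amount (40-400 ng/well) and substrate levels vary by PKR variant. The coupled read-out uses LDH (0.5 units) consuming NADH, tracked at 340 nm at room temperature after ADP initiation, following a one-hour compound preincubation.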

PKR R510Q = PKR R510Q (Homo sapiens, UniProt P30613, R510Q); assay: PKR mutant assay (R510Q), AC50, LDH/NADH-coupled, absorbance at 340 nm; type: biochemical; settings: for EC50: read-out: PK R510Q; for AC50 / PK R510Q AC50: Table 2, enzyme assay; for AC50: read-out: PK R510Q AC50
Summary of the method: as §1

wild type PKR [2] = target: T1, wild type PKR; assay: PKR (wild type) enzyme AC50 assay, LDH/NADH-coupled, absorbance at 340 nm; type: biochemical; settings: for EC50: read-out: PKR WT; for AC50: Table 2, enzyme assay, read-out: PKR WT AC50
Summary of the method: as §1

Chain of PKR K410E (P30613 whole entry K410E): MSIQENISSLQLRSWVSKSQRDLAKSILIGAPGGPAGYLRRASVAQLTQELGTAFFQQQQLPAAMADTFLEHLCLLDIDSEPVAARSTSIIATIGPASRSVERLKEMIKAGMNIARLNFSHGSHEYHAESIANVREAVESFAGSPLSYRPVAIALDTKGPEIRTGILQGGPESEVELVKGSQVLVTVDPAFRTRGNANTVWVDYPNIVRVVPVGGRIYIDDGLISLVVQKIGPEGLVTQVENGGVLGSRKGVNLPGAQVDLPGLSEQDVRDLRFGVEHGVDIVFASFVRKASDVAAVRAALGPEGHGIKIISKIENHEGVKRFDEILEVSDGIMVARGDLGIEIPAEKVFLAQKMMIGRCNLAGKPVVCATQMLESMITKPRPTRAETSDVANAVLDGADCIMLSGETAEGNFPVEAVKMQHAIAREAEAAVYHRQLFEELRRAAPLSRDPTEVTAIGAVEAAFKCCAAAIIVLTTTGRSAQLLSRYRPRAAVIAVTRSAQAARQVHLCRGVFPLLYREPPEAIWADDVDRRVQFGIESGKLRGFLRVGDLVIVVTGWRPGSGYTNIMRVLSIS
Chain of PKR R510Q (P30613 whole entry R510Q): as the sequence (P30613 whole entry K410E) above, with E410K, R510Q counted along it
T1 sequence (P30613 whole entry): as the sequence (P30613 whole entry K410E) above, with E410K counted along it

Row | Structure (SMILES) | EC50 (wild type PKR [1]) | EC50 (PKR K410E; Table 4, AC50, enzyme assay) | EC50 (PKR R510Q; Table 4, AC50, enzyme assay) | EC50 (wild type PKR [2]; Table 4, AC50, enzyme assay) | AC50 (PKR K410E) | AC50 (PKR R510Q) | AC50 (wild type PKR [2]) | AC50 (wild type PKR [1]) | other results
1 | Cn1c2nc(Cc3cc[nH]n3)sc2c2cnn(Cc3ccc4scnc4c3)c(=O)c21 [Compound 237] | ≤ 1 µM | < 0.3 µM | < 0.3 µM | < 0.3 µM |  |  |  |  | 
2 | O=c1c2c(cnn1Cc1ccccc1)c1sc(Cc3cc[nH]n3)nc1n2C1CC1 [Compound 408] | > 1 µM | > 0.8 µM | 0.301 to 0.8 µM | > 0.8 µM |  |  |  |  | 
3 | Cc1nc2c(s1)c1cnn(Cc3ccc4[nH]c(=O)[nH]c4c3)c(=O)c1n2C [Compound 61] |  |  |  |  | > 0.8 µM | > 0.8 µM | > 0.8 µM |  | Cell based ATP assay AC50 (wild type PKR [1]): No Fit
4 | COc1cccc(Cn2ncc3c4sc(Cl)nc4n(C)c3c2=O)c1 [Compound 30] |  |  |  |  | 0.301 to 0.8 µM | < 0.3 µM | < 0.3 µM | > 1 µM | 
5 | COc1cccc(Cn2ncc3c4sc(C)nc4n(C)c3c2=O)n1 [Compound 27] |  |  |  |  | 0.301 to 0.8 µM | 0.301 to 0.8 µM | < 0.3 µM | ≤ 1 µM | 
6 | Cn1c2nc(Cc3cc[nH]n3)sc2c2cnn(Cc3cccc4[nH]c(=O)[nH]c34)c(=O)c21 [Compound 252] | ≤ 1 µM | < 0.3 µM | < 0.3 µM | < 0.3 µM |  |  |  |  | 
7 | Cc1nc2c(s1)c1cnn(Cc3cccc(F)n3)c(=O)c1n2C [Compound 28] |  |  |  |  | > 0.8 µM | > 0.8 µM | > 0.8 µM | > 1 µM | 
8 | Cn1c2nc(Cc3c[nH]nn3)sc2c2cnn(Cc3ccccc3)c(=O)c21 [Compound 273] | > 1 µM | > 0.8 µM | > 0.8 µM | > 0.8 µM |  |  |  |  | 
9 | Cn1c2nc(Cc3c[nH]cn3)sc2c2cnn(Cc3cccc4[nH]ncc34)c(=O)c21 [Compound 205] | ≤ 1 µM | < 0.3 µM | < 0.3 µM | < 0.3 µM |  |  |  |  | 
10 | CNCc1nc2c(s1)c1cnn(Cc3cccc4[nH]ncc34)c(=O)c1n2C [Compound 125] |  |  |  |  | > 0.8 µM | 0.301 to 0.8 µM | > 0.8 µM | > 1 µM | 
11 | Cn1c2nc(Cc3cc[nH]n3)sc2c2cnn(Cc3ccc4ccccc4n3)c(=O)c21 [Compound 111] |  |  |  |  | < 0.3 µM | < 0.3 µM | < 0.3 µM | ≤ 1 µM | 
12 | Cn1c2nc(Cc3nnco3)sc2c2cnn(Cc3cccc4[nH]ncc34)c(=O)c21 [Compound 221] | > 1 µM | < 0.3 µM | 0.301 to 0.8 µM | < 0.3 µM |  |  |  |  | 
13 | Cc1cccc(Cc2nc3c(s2)c2cnn(Cc4cccc5[nH]ncc45)c(=O)c2n3C)n1 [Compound 159] |  |  |  |  | < 0.3 µM | < 0.3 µM | < 0.3 µM | ≤ 1 µM | 
14 | CC(=O)c1cccc(CC(c2cc[nH]n2)c2nc3c(s2)c2cnn(Cc4cccc(C(C)=O)c4)c(=O)c2n3C)c1 (stereo not drawn) [Compound 192] | > 1 µM | > 0.8 µM | > 0.8 µM | > 0.8 µM |  |  |  |  | 
15 | Cn1c2nc(Cc3cc[nH]n3)sc2c2cnn(Cc3cn4cccnc4n3)c(=O)c21 [Compound 213] | ≤ 1 µM | 0.301 to 0.8 µM | 0.301 to 0.8 µM | 0.301 to 0.8 µM |  |  |  |  | 
16 | COc1cccc(Cn2ncc3c4sc(Sc5ccccc5)nc4n(C)c3c2=O)c1 [Compound 34] |  |  |  |  | < 0.3 µM | < 0.3 µM | < 0.3 µM | ≤ 1 µM | 
17 | COc1cccc(Cn2ncc3c4sc(CC5CCCCC5)nc4n(C)c3c2=O)c1 [Compound 50] |  |  |  |  | > 0.8 µM | > 0.8 µM | > 0.8 µM |  | Cell based ATP assay AC50 (wild type PKR [1]): No Fit
18 | CCOC(=O)Cn1ncc2c3sc(C)nc3n(C)c2c1=O [Compound 66] |  |  |  |  | > 0.8 µM |  | > 0.8 µM |  | Cell based ATP assay AC50 (wild type PKR [1]): No Fit; PK R510Q AC50 (PKR R510Q): No Fit
19 | CCOC(=O)c1cccc(Cn2ncc3c4sc(C)nc4n(C)c3c2=O)c1 [Compound 10] |  |  |  |  | > 0.8 µM | > 0.8 µM | > 0.8 µM |  | Cell based ATP assay AC50 (wild type PKR [1]): No Fit
20 | Cc1nc2c(s1)c1cnn(Cc3cccc4c3cnn4C)c(=O)c1n2C [Compound 76] |  |  |  |  | < 0.3 µM | < 0.3 µM | > 0.8 µM | ≤ 1 µM | 
21 | Cc1nc2c(s1)c1cnn(CCOCCO)c(=O)c1n2C [Compound 54] |  |  |  |  | > 0.8 µM |  | > 0.8 µM |  | Cell based ATP assay AC50 (wild type PKR [1]): No Fit; PK R510Q AC50 (PKR R510Q): No Fit
22 | Cn1c2nc(C(O)c3cc[nH]n3)sc2c2cnn(Cc3cccc4[nH]ncc34)c(=O)c21 (stereo not drawn) [Compound 148] |  |  |  |  | < 0.3 µM | < 0.3 µM | < 0.3 µM | ≤ 1 µM | 
23 | COc1cccc(Cn2ncc3c4sc(C(=O)c5cccc(O)c5)nc4n(C)c3c2=O)c1 [Compound 55] |  |  |  |  | > 0.8 µM | 0.301 to 0.8 µM | 0.301 to 0.8 µM | > 1 µM | 

Row | Structure (SMILES) | EC50 (wild type PKR [1]) | EC50 (PKR K410E; Table 4, AC50, enzyme assay) | EC50 (PKR R510Q; Table 4, AC50, enzyme assay) | EC50 (wild type PKR [2]; Table 4, AC50, enzyme assay) | AC50 (PKR K410E) | AC50 (PKR R510Q) | AC50 (wild type PKR [2]) | AC50 (wild type PKR [1]) | other results
24 | CC(=O)c1cccc(Cn2ncc3c4sc(Cc5cc[nH]n5)nc4n(C)c3c2=O)c1 [Compound 190] | ≤ 1 µM | < 0.3 µM | < 0.3 µM | < 0.3 µM |  |  |  |  | 
25 | Cn1c2nc(Cc3csc(CO)n3)sc2c2cnn(Cc3cccc4[nH]ncc34)c(=O)c21 [Compound 168] |  |  |  |  | < 0.3 µM | < 0.3 µM | < 0.3 µM | ≤ 1 µM | 
26 | Cn1c2nc(Cc3cccc(CO)c3)sc2c2cnn(Cc3cccc4[nH]ncc34)c(=O)c21 [Compound 118] |  |  |  |  | < 0.3 µM | < 0.3 µM | < 0.3 µM | > 1 µM | 
27 | Cn1c2nc(Cc3cc[nH]n3)sc2c2cnn(Cc3cccc4c3NS(=O)(=O)N4)c(=O)c21 [Compound 275] | > 1 µM | > 0.8 µM | > 0.8 µM | > 0.8 µM |  |  |  |  | 
28 | Cn1c2nc(Cc3n[nH]cc3F)sc2c2cnn(Cc3ccccc3)c(=O)c21 [Compound 382] | ≤ 1 µM | < 0.3 µM | < 0.3 µM | < 0.3 µM |  |  |  |  | 
29 | CSc1nc2c(s1)c1cnn(Cc3ccccc3)c(=O)c1n2-c1nccs1 [Compound 409] |  |  |  | > 0.8 µM |  |  |  |  | Cell based ATP assay (wild type PKR [1]): No Fit; PKR K410E (PKR K410E; Table 4, AC50, enzyme assay): No Fit; PK R510Q (PKR R510Q; Table 4, AC50, enzyme assay): No Fit
30 | Cn1c2nc(C(N)c3ccccc3)sc2c2cnn(Cc3cccc4[nH]ncc34)c(=O)c21 (stereo not drawn) [Compound 136] |  |  |  |  | < 0.3 µM | < 0.3 µM | < 0.3 µM | ≤ 1 µM | 
31 | Cn1c2nc(Cc3cc[nH]n3)sc2c2cnn(CCc3cccnc3)c(=O)c21 [Compound 399] |  | > 0.8 µM | > 0.8 µM | > 0.8 µM |  |  |  |  | Cell based ATP assay (wild type PKR [1]): No Fit
32 | O=c1c2c(cnn1Cc1ccccc1)c1sc(Cc3cc[nH]n3)nc1n2Cc1ccccc1 [Compound 407] |  | > 0.8 µM | < 0.3 µM |  |  |  |  |  | Cell based ATP assay (wild type PKR [1]): No Fit; PKR WT (wild type PKR [2]; Table 4, AC50, enzyme assay): No Fit
33 | Cn1c2nc(Cc3cc(C(F)(F)F)[nH]n3)sc2c2cnn(Cc3cccc4[nH]ncc34)c(=O)c21 [Compound 160] |  |  |  |  | 0.301 to 0.8 µM | 0.301 to 0.8 µM | 0.301 to 0.8 µM | ≤ 1 µM | 
34 | Cn1c2nc(Cc3nc[nH]n3)sc2c2cnn(Cc3cccc4[nH]ncc34)c(=O)c21 [Compound 230] | ≤ 1 µM | < 0.3 µM | < 0.3 µM | < 0.3 µM |  |  |  |  | 
35 | CC(=O)c1cccc(Cn2ncc3c4sc(C)nc4n(C)c3c2=O)c1 [Compound 56] |  |  |  |  | < 0.3 µM | < 0.3 µM | 0.301 to 0.8 µM | > 1 µM | 
36 | CC(c1cc[nH]n1)c1nc2c(s1)c1cnn(Cc3cccc4[nH]ncc34)c(=O)c1n2C (stereo not drawn) [Compound 195] | ≤ 1 µM | < 0.3 µM | < 0.3 µM | < 0.3 µM |  |  |  |  | 
37 | Cn1c2nc(Cc3cccc4[nH]ncc34)sc2c2cnn(Cc3cccc4[nH]ncc34)c(=O)c21 [Compound 143] |  |  |  |  | < 0.3 µM | < 0.3 µM | < 0.3 µM | > 1 µM | 
38 | Cn1c2nc(Cc3cc[nH]n3)sc2c2cnn(Cc3cccc4c3CNC4)c(=O)c21 [Compound 253] | ≤ 1 µM | < 0.3 µM | < 0.3 µM | < 0.3 µM |  |  |  |  | 
39 | COc1cccc(Cn2ncc3c4sc(Cc5ccc(C)cc5)nc4n(C)c3c2=O)c1 [Compound 32] |  |  |  |  | < 0.3 µM | < 0.3 µM | < 0.3 µM | ≤ 1 µM | 
40 | Cc1nc2c(s1)c1cnn(Cc3ccc4cc[nH]c4c3)c(=O)c1n2C [Compound 60] |  |  |  |  | < 0.3 µM | < 0.3 µM | < 0.3 µM | ≤ 1 µM | 
41 | COc1ccc(Cn2ncc3c4sc(Cc5cc[nH]n5)nc4n(C)c3c2=O)cc1 [Compound 123] |  |  |  |  | < 0.3 µM | < 0.3 µM | < 0.3 µM | ≤ 1 µM | 
42 | COc1cccc(Cn2ncc3c4sc(C(F)(F)c5ccccc5)nc4n(C)c3c2=O)c1 [Compound 108] |  |  |  |  | < 0.3 µM | < 0.3 µM | < 0.3 µM | ≤ 1 µM | 
43 | Cn1c2nc(Cc3cc[nH]n3)sc2c2cnn(Cc3cccc4[nH]ncc34)c(=O)c21 [Compound 81] |  |  |  |  | < 0.3 µM | < 0.3 µM | < 0.3 µM | ≤ 1 µM | 
44 | Cn1c2nc(Cc3ccc(Cl)nc3)sc2c2cnn(Cc3cccc4[nH]ncc34)c(=O)c21 [Compound 150] |  |  |  |  | > 0.8 µM | > 0.8 µM | > 0.8 µM | > 1 µM | 
45 | COc1cccc(Cn2ncc3c4sc(Cc5cc[nH]n5)nc4n(C)c3c2=O)c1 [Compound 144] |  |  |  |  | < 0.3 µM | < 0.3 µM | < 0.3 µM | ≤ 1 µM | 

— patent US11957680B2, “Pyruvate kinase activators for use in treating blood disorders” (Agios Pharmaceuticals, Inc., priority 2017, dated 2024)
